This is an account of results in US11254690B2, “PTEFb inhibiting macrocyclic compounds” (BAYER AKTIENGESELLSCHAFT, priority 2017, dated 2022).

The structures appear in SMILES notation. Where two headings read alike, the source gives them in different places.

One assay addresses T1, CDK2/CycE (Homo sapiens, UniProt P24941).
T1 construct: GST; purchased ProQinase GmbH (Freiburg, Germany); host or cells: insect cells (Sf9)
Nature of the assay: CDK2/CycE high ATP kinase assay (TR-FRET, 2 mM ATP). In kind it is biochemical. Conditions: Method 2b. As to the method:
2b. CDK2/CycE High ATP Kinase Assay
CDK2/CycE-inhibitory activity of compounds of the present invention at 2 mM adenosine-tri-phosphate (ATP) was quantified employing the CDK2/CycE TR-FRET (TR-FRET=Time Resolved Fluorescence Energy Transfer) assay as described in the following paragraphs.
Recombinant fusion proteins of GST and human CDK2 and of GST and human CycE, expressed in insect cells (Sf9) and purified by Glutathion-Sepharose affinity chromatography, were purchase from ProQinase GmbH (Freiburg, Germany). As substrate for the kinase reaction biotinylated peptide biotin-Ttds-YISPLKSPYKISEG (C-terminus in amid form) was used which can be purchased e.g. form the company JERINI peptide technologies (Berlin, Germany).
(§1) For the assay 50 nl of a 100 fold concentrated solution of the test compound in DMSO was pipetted into either a black low volume 384 well microtiter plate or a black 1536 well microtiter plate (both Greiner Bio-One, Frickenhausen, Germany), 2 μl of a solution of CDK2/CycE in aqueous assay buffer [50 mM Tris/HCl pH 8.0, 10 mM MgCl2, 1.0 mM dithiothreitol, 0.1 mM sodium ortho-vanadate, 0.01% (v/v) Nonidet-P40 (Sigma)] were added and the mixture was incubated for 15 min at 22° C. to allow pre-binding of the test compounds to the enzyme before the start of the kinase reaction. […] The concentration of CDK2/CycE was adjusted depending of the activity of the enzyme lot and was chosen appropriate to have the assay in the linear range, typical concentrations were about 10 ng/ml. The reaction was stopped by the addition of 3 μl of a solution of TR-FRET detection reagents (0.333 μM streptavidine-XL665 [Cisbio Bioassays, Codolet, France] and 1.67 nM anti-RB(pSer807/pSer811)-antibody from BD Pharmingen [#558389] and 2 nM LANCE EU-W1024 labeled anti-mouse IgG antibody [Perkin-Elmer, product no. AD0077, as an alternative a Terbium-cryptate-labeled anti-mouse IgG antibody from Cisbio Bioassays can be used]) in an aqueous EDTA-solution (167 mM EDTA, 0.2% (w/v) bovine serum albumin in 100 mM HEPES pH 7.5).
(§2) The resulting mixture was incubated 1 h at 22° C. to allow the formation of complex between the phosphorylated biotinylated peptide and the detection reagents. Subsequently the amount of phosphorylated substrate was evaluated by measurement of the resonance energy transfer from the Eu-chelate to the streptavidine-XL. Therefore, the fluorescence emissions at 620 nm and 665 nm after excitation at 350 nm was measured in a TR-FRET reader, e.g. a Pherastar (BMG Labtechnologies, Offenburg, Germany) or a Viewlux (Perkin-Elmer). The ratio of the emissions at 665 nm and at […] was taken as the measure for the amount of phosphorylated substrate. The data were normalised (enzyme reaction without inhibitor=0% inhibition, all other assay components but no enzyme=100% inhibition).
(In general: TR-FRET usually uses a lanthanide donor and a delayed reading to cut background.)

Another assay deals with A2780 cells. The experiment in a line: Proliferation assay, A2780. The assay is classed as cell-based, human. Conditions: 72-hour exposure, Cell Titre-Glo, read-out: Inhibition of A2780 cell proliferation IC50. Here is the method: Cultivated tumour cells (HeLa, human cervical tumour cells, ATCC CCL-2; NCI-H460, human non-small cell lung carcinoma cells, ATCC HTB-177; DU 145, hormone-independent human prostate carcinoma cells, ATCC HTB-81; HeLa-MaTu-ADR, multidrug-resistant human cervical carcinoma cells, EPO-GmbH Berlin; Caco-2, human colorectal carcinoma cells, ATCC HTB-37; B16F10, mouse melanoma cells, ATCC CRL-6475) were plated at a density of 5,000 cells/well (DU145, HeLa-MaTu-ADR), 3,000 cells/well (NCI-H460, HeLa), 1,500 cells/well (Caco-2), or 1,000 cells/well (B16F10) in a 96-well multititer plate in 200 μL of their respective growth medium supplemented 10% fetal calf serum. After 24 hours, the cells of one plate (zero-point plate) were stained with crystal violet (see below), while the medium of the other plates was supplemented with the test substances in various concentrations (0 μM, as well as in the range of 0.0001-10 μM; the final concentration of the solvent dimethyl sulfoxide was adjusted to 0.1%) using a Hewlett-Packard HP D300 Digital Dispenser. The cells were incubated for 4 days in the presence of test substances. Cell proliferation was determined by staining the cells with crystal violet: the cells were fixed by adding 20 μl/measuring point of an 11% glutaric aldehyde solution for 15 minutes at room temperature. After three washing cycles of the fixed cells with water, the plates were dried at room temperature. The cells were stained by adding 100 μl/measuring point of a 0.1% crystal violet solution (pH 3.0). After three washing cycles of the stained cells with water, the plates were dried at room temperature. The dye was dissolved by adding 100 μl/measuring point of a 10% acetic acid solution. The extinction was determined by photometry at a wavelength of 595 nm. The change of cell number, in percent, was calculated by normalization of the measured values to the extinction values of the zero-point plate (=0%) and the extinction of the untreated ([…]) cells (=100%). The IC50 values (inhibitory concentration at 50% of maximal effect) were determined by means of a 4 parameter fit. A2780 human ovarian carcinoma cells (ECACC #93112519) and non-adherent MOLM-13 human acute myeloid leukemia cells (DSMZ ACC 554) were seeded at a density of 3,000 cell/well (A2780) or 5,000 cells/well (MOLM-13) in a 96-well multititer plate in 150 μL of growth medium supplemented 10% fetal calf serum. After 24 hours, cell viability of one plate (zero-point plate) was determined with the Cell Titre-Glo Luminescent Cell Viability Assay (Promega), while the medium of the other plates was supplemented with the test substances in various concentrations (0 μM, as well as in the range of 0.0001-10 μM; the final concentration of the solvent dimethyl sulfoxide was adjusted to 0.1%) using a Hewlett-Packard HP D300 Digital Dispenser. Cell viability was assessed after 72-hour exposure with the Cell Titre-Glo Luminescent Cell Viability Assay (Promega). IC50 values (inhibitory concentration at 50% of maximal effect) were determined by means of a 4 parameter fit on measurement data which were normalized to vehicle (DMSO) treated cells (=100%) and measurement readings taken immediately before compound exposure (=0%).

A further assay concerns the target T2, CDK9/CycT1 (Homo sapiens, UniProt P50750).
T2 construct: Recombinant full-length His-tagged human CDK9 and CycT1; His; purchased Life Technologies PV4131; host or cells: insect cells
The experiment in a line: CDK9/CycT1 high ATP kinase assay (TR-FRET, 2 mM ATP). The assay is classed as biochemical. Conditions: for IC50: 2 mM ATP, Method 1b, lower limit for IC50s about 1-2 nM; for Selectivity high ATP CDK9 over high ATP CDK2: IC50 (high ATP CDK2)/IC50 (high ATP CDK9): ratio from Methods 1b and 2b, minimal values for IC50s near the assay limit. Here is the method: 1b. CDK9/CycT1 High ATP Kinase Assay
CDK9/CycT1-inhibitory activity of compounds of the present invention at a high ATP concentration after preincubation of enzyme and test compounds was quantified employing the CDK9/CycT1 TR-FRET assay as described in the following paragraphs.
Recombinant full-length His-tagged human CDK9 and CycT1, expressed in insect cells and purified by Ni-NTA affinity chromatography, were purchased from Life Technologies (Cat. No PV4131). As substrate for the kinase reaction biotinylated peptide biotin-Ttds-YISPLKSPYKISEG (C-terminus in amide form) was used which can be purchased e.g. form the company JERINI peptide technologies (Berlin, Germany).
as §1, with “CDK9/CycT1” for “CDK2/CycE”, “in the range of 0.5 μg/ml.” for “about 10 ng/ml.”, “(0.33” for “(0.333”, “AD0077])” for “AD0077, as an alternative a Terbium-cryptate-labeled anti-mouse IgG antibody from Cisbio Bioassays can be used])”
as §2

T2 sequence (P50750 whole entry): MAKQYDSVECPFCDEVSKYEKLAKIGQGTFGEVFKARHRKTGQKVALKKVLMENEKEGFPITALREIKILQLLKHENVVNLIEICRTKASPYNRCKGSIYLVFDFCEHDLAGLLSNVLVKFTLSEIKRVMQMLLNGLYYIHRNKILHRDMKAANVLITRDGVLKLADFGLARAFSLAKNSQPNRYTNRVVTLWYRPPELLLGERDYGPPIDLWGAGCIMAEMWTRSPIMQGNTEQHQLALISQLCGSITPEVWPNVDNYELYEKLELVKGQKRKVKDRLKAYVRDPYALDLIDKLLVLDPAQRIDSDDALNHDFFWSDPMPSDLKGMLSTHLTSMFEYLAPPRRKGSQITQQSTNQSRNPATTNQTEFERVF
T2 sequence (O60563 whole entry partner): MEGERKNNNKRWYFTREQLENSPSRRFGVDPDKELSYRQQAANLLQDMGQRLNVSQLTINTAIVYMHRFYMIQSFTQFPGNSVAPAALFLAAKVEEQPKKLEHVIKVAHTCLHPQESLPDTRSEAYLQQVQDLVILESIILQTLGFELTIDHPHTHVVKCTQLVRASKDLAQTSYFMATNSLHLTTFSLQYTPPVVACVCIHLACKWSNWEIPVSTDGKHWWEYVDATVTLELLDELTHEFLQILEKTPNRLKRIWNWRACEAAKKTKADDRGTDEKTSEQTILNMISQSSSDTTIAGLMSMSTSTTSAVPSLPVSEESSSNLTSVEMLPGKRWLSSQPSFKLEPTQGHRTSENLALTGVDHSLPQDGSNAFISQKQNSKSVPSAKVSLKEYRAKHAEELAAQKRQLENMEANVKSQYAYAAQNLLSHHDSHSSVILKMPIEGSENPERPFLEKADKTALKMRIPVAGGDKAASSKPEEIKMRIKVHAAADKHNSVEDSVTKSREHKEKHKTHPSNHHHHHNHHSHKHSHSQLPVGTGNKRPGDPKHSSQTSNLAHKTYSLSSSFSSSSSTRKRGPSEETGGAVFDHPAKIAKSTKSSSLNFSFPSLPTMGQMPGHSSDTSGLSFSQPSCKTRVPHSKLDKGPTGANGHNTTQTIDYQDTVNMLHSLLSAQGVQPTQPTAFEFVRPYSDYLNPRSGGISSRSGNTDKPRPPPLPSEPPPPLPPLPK

For the compound `CC1CCCOc2cc(ccc2F)-c2cc(ncc2F)Nc2cc(CS(C)(=N)=O)cc(n2)O1` (single isomer, unassigned) [Example 14, 3,20-difluoro-14-methyl-10-[(S-methylsulfonimidoyl)methyl]-13,18-dioxa-5,7,24-triazatetracyclo[17.3.1.1^2,6.1^8,12]pentacosa-1(23),2(25),3,5,8(24),9,11,19,21-nonaene], the IC50 against CDK2/CycE is 1510 nM; in the assay with A2780 cells it was 23 nM; against CDK9/CycT1, 3 nM. For the same compound, the “Selectivity high ATP CDK9 over high ATP CDK2: IC50 (high ATP CDK2)/IC50 (high ATP CDK9)” value (“Selectivity high ATP CDK9” below) at CDK9/CycT1 worked out at 503.
On the same counts, the results for `CC1CCCCCOc2cc(ccc2F)-c2cc(ncc2F)Nc2cc(CS(C)(=O)=O)cc(n2)O1` (single isomer, unassigned) [Example 32, 3,22-difluoro-14-methyl-10-[(methylsulfonyl)methyl]-13,20-dioxa-5,7,26-triazatetracyclo[19.3.1.1^2,6.1^8,12]hexacosa-1 (25),2(27),3,5,8(26),9,11,21,23-nonaene] are 4980 nM, 146 nM, 18 nM and 277.
In the case of `CC1CCCCCOc2cc(ccc2F)-c2cc(ncc2F)Nc2cc(CS(C)(=O)=O)cc(n2)O1` (single isomer, unassigned) [Example 31, 3,22-difluoro-14-methyl-10-[(methylsulfonyl)methyl]-13,20-dioxa-5,7,26-triazatetracyclo[19.3.1.1^2,6.1^8,12]hexacosa-1 (25),2(27),3,5,8(26),9,11,21,23-nonaene], the IC50 was more than 20000 nM on CDK2/CycE; 121 nM in the assay with A2780 cells (Homo sapiens, A2780, 72 h); 16 nM against CDK9/CycT1. In addition, the “Selectivity high ATP CDK9” value at CDK9/CycT1 worked out at 1250.
On the same counts, the results for `CSCc1cc2nc(c1)OC(C)CCCOc1cc(ccc1F)-c1cc(ncc1F)N2` (racemic) [Example 11, (rac)-3,20-difluoro-14-methyl-10-[(methylsulfanyl)methyl]-13,18-dioxa-5,7,24-triazatetracyclo[17.3.1.1^2,6.1^8,12]pentacosa-1(23),2(25),3,5,8(24),9,11,19,21-nonaene] are 4670 nM, 346 nM, 7 nM and 667.
Take `CC1CCCCOc2cc(ccc2F)-c2cc(ncc2F)Nc2cc(CS(C)(=O)=O)cc(n2)O1` (single isomer, unassigned) [Example 29, 3,21-difluoro-14-methyl-10-[(methylsulfonyl)methyl]-13,19-dioxa-5,7,25-triazatetracyclo[18.3.1.1^2,6.1^8,12]hexacosa-1(24),2(26),3,5,8(25),9,11,20,22-nonaene]: the figures for the IC50 against CDK2/CycE, with A2780 cells and against CDK9/CycT1 were 691 nM, 25 nM and 4 nM, respectively. The “Selectivity high ATP CDK9” value at CDK9/CycT1 came to 173.
On the same counts, the results for `CC1CCCCOc2cc(ccc2F)-c2cc(ncc2F)Nc2cc(CS(C)(=O)=O)cc(n2)O1` (single isomer, unassigned) [Example 30, 3,21-difluoro-14-methyl-10-[(methylsulfonyl)methyl]-13,19-dioxa-5,7,25-triazatetracyclo[18.3.1.1^2,6.1^8,12]hexacosa-1(24),2(26),3,5,8(25),9,11,20,22-nonaene] are 3590 nM, 55 nM, 3 nM and 1196.
The corresponding values for `CC1CCCOc2cc(ccc2F)-c2cc(ncc2F)Nc2cc(CS(C)(=N)=O)cc(n2)O1` (single isomer, unassigned) [Example 15, 3,20-difluoro-14-methyl-10-[(S-methylsulfonimidoyl)methyl]-13,18-dioxa-5,7,24-triazatetracyclo[17.3.1.1^2,6.1^8,12]pentacosa-1(23),2(25),3,5,8(24),9,11,19,21-nonaene] are 1620 nM, 16 nM, 3 nM and 540.
